Source: ChEMBL document CHEMBL4879554, “Data for DCP probe GNE-2256” (2021)

Legend:
[1] = target: Tyrosine-protein kinase JAK1 (Homo sapiens, UniProt P23458); assay: NanoBRET assay (JAK1, SGC Frankfurt)
[2] = target: Receptor-type tyrosine-protein kinase FLT3 (Homo sapiens, UniProt P36888); assay: NanoBRET assay (FLT3, SGC Frankfurt)
[3] = target: Tyrosine-protein kinase JAK2 (Homo sapiens, UniProt O60674); assay: NanoBRET assay (JAK2, SGC Frankfurt)
Chain of Tyrosine-protein kinase JAK2 (O60674 whole entry): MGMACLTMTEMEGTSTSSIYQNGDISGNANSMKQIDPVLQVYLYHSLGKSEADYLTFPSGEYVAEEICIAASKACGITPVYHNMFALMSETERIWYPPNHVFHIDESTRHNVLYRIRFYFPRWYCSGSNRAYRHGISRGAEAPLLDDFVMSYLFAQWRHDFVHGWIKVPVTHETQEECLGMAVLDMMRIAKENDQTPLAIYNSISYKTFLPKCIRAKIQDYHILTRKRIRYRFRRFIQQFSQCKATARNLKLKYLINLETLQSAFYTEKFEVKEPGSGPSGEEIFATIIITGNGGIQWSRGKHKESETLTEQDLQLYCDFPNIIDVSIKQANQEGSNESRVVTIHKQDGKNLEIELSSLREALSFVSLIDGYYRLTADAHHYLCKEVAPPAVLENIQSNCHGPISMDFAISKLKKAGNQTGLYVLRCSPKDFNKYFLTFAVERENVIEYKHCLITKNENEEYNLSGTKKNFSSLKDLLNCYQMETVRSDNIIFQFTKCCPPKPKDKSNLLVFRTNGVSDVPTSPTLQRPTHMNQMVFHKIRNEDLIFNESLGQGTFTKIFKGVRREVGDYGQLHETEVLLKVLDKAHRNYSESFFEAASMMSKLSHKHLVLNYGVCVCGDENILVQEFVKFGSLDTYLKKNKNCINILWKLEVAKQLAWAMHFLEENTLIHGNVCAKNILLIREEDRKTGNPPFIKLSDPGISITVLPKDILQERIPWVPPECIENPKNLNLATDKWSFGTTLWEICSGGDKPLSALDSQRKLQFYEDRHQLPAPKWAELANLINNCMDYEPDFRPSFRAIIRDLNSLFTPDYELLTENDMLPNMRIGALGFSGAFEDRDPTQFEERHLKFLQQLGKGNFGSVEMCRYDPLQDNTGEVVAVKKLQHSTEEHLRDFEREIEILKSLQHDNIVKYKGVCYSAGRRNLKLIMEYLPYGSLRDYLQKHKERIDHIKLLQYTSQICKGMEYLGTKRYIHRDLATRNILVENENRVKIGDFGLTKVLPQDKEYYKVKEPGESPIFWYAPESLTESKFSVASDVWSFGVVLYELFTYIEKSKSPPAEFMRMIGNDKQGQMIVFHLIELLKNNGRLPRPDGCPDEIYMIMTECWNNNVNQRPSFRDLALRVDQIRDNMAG

Chain of Tyrosine-protein kinase JAK1 (P23458 whole entry): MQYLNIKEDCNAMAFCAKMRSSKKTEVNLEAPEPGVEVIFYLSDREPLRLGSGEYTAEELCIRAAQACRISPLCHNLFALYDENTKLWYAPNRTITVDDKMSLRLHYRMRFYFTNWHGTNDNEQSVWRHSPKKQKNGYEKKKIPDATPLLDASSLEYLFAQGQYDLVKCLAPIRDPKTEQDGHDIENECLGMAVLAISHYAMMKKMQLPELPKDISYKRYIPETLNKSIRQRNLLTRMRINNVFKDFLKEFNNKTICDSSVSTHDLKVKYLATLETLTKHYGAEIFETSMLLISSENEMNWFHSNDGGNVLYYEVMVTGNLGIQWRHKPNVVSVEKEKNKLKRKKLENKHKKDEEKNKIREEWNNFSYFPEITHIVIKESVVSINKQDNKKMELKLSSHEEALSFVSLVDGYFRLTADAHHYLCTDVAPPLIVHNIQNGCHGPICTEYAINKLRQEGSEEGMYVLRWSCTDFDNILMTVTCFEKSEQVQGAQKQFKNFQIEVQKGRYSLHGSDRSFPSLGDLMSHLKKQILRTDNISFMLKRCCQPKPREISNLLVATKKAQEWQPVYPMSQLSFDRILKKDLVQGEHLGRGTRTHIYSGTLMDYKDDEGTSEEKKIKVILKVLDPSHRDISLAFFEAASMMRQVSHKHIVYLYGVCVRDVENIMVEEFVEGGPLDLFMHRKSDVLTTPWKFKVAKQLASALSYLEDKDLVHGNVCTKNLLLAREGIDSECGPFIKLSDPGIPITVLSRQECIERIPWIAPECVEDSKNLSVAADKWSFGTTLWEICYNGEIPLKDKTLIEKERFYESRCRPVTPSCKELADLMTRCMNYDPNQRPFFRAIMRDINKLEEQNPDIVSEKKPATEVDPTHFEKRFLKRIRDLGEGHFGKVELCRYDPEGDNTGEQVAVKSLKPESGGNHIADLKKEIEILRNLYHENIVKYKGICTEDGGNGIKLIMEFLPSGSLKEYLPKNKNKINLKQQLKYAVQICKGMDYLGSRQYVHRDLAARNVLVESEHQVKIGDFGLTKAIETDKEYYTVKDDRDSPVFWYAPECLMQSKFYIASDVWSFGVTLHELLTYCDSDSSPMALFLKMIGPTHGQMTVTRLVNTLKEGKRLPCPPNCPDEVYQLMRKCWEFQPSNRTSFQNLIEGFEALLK
Chain of Receptor-type tyrosine-protein kinase FLT3 (P36888 whole entry): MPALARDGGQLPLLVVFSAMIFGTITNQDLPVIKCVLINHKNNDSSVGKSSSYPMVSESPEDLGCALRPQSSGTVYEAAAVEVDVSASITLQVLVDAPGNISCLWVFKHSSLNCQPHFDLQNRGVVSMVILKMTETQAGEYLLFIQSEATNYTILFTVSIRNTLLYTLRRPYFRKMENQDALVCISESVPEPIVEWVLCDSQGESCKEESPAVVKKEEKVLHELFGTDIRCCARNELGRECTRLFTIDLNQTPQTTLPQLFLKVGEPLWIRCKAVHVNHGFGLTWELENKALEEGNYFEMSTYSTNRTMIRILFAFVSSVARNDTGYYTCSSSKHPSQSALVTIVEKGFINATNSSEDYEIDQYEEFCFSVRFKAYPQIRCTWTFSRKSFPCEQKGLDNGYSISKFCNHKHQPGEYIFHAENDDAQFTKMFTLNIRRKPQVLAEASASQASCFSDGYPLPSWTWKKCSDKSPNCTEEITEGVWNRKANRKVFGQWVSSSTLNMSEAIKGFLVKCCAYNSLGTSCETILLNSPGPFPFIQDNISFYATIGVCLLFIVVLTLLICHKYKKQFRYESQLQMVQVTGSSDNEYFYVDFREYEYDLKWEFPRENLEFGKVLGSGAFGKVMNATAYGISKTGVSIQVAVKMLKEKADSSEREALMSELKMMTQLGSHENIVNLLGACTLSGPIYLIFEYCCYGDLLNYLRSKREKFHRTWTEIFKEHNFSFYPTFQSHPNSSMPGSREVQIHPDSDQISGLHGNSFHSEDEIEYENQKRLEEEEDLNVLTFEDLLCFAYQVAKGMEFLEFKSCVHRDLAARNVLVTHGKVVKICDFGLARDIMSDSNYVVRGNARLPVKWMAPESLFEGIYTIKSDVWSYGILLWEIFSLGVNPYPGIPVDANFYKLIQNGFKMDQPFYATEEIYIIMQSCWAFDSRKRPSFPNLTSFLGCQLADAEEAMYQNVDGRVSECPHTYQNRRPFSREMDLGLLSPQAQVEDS

EC50 [1]: > 50 µM (not active)
EC50 [2]: 3.6 µM (not active)
EC50 [3]: > 50 µM (not active)
Compound: CN(C(=O)c1cnn2cccnc12)c1cc2c(cc1N1CCOCC1)C(=O)N(C[C@@H](F)C(C)(C)O)C2
